The values below come from patent US12325701B2, “YKL-40 inhibitors and their therapeutic” (Molecure S.A., priority 2022, dated 2025).

Structures can show the parent of a compound that is named as a salt.

Test [1] concerns the target YKL-40 (YKL-40: heparan sulfate interaction) (Homo sapiens (Human), UniProt P36222). Briefly: YKL-40:HS assay, heparan sulfate interference AlphaScreen. The settings on record: read-out: YKL-40:HS, IC50/max % inh (max % inh).
Experimental: Positive and negative control wells received just 8 uL of MST buffer containing 2% DMSO without inhibitor in the 2nd step (ii). In addition, negative control received just 8 uL of MST buffer containing 0% DMSO without YKL-40-histag in the 3nd step (iii). Finally, the plate luminescence was excited at 680 nm and the emission read at 520-620 nm using the AlphaScreen module in the The Spark™ 1 μM multimode microplate reader (Tecan Trading AG, Mannedorf, Switzerland). Inhibition percentage and IC50 values were determined using GraphPad Prism 7.0 software (GraphPad Software, San Diego, CA, USA).
The target in test [2] is human YKL-40 (Homo sapiens (Human), UniProt P36222). Put plainly: Human YKL-40 direct binding assay based on MicroScale Thermophoresis (MST). Particulars: by MST and competitive AlphaScreen for chitin binding site; depends on ligand length, sulphation, Mg2+. In general terms: In MST a laser heats a spot of the sample, and binding alters the fluorescence response.
Sequence of human YKL-40 (P36222 22-383): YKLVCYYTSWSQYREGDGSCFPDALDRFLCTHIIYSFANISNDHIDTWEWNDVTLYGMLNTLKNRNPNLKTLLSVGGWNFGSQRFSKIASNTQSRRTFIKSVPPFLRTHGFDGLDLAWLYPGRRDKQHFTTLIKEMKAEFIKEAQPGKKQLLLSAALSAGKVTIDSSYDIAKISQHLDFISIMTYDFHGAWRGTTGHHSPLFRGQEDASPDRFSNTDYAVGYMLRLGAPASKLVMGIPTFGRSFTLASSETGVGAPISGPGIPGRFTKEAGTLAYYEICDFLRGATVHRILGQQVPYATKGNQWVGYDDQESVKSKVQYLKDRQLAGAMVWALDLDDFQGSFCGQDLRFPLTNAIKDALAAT

Sequence of YKL-40 (YKL-40: heparan sulfate interaction) (P36222 22-383): as above

With `Cc1ccnc(N2CCC(N3C[C@H](C)OC[C@@H]3Cc3ccc(Cl)cc3)CC2)c1F` [Compound 112, (2S,5S)-5-(4-chlorobenzyl)-4-(1-(3-fluoro-4-methylpyridin-2-yl)piperidin-4-yl)-2-methylmorpholine 2,2,2-trifluoroacetate], the inhibition in test [1] was 30%. Still for that read-out and setting: then `CNC(=O)CN1C[C@H](Cc2ccc(Cl)cc2)N(C2CCN(c3ccccn3)CC2)C[C@@H]1CC(C)C` [Compound 95, 2-((2S,5S)-5-(4-chlorobenzyl)-2-isobutyl-4-(1-(pyridin-2-yl)piperidin-4-yl)piperazin-1-yl)-N-methylacetamide 2,2,2-trifluoroacetate], with 85%; and `CN1C[C@H](Cc2ccc(Cl)cc2)N(C2CCN(c3cc(Cl)ccn3)CC2)C[C@@H]1Cn1ccnc1` [Compound 82, (2R,5S)-2-((1H-imidazol-1-yl)methyl)-5-(4-chlorobenzyl)-4-(1-(4-chloropyridin-2-yl)piperidin-4-yl)-1-methylpiperazine hydrochloride], with 75%. The same measure, in the same setting: in the case of `CN1C[C@H](Cc2ccc(Cl)cc2)N(C2CCN(c3ccccn3)CC2)C[C@@H]1Cc1ccc(Cl)cc1` [Compound 63, (2S,5S)-2,5-bis(4-chlorobenzyl)-1-methyl-4-(1-(pyridin-2-yl)piperidin-4-yl)piperazine 2,2,2-trifluoroacetate] it was 85%; in that of `Cc1cnc(N2CCC(N3C[C@H](C)OC[C@@H]3Cc3ccc(Cl)cc3)CC2)s1` [Compound 185, (2S,5S)-5-(4-chlorobenzyl)-2-methyl-4-(1-(5-methylthiazol-2-yl)piperidin-4-yl)morpholine 2,2,2-trifluoroacetate], 36%.

Regarding heparin sodium salt, in test [2], the “binding affinity to YKL-40 (in words)” value was “high nM affinity”. Regarding `CNC(=O)CN1C[C@H](Cc2ccc(Cl)cc2)N(C2CCN(c3ccccn3)CC2)C[C@@H]1C(C)C` [Compound 106, 2-((2S,5S)-5-(4-chlorobenzyl)-2-isopropyl-4-(1-(pyridin-2-yl)piperidin-4-yl)piperazin-1-yl)-N-methylacetamide 2,2,2-trifluoroacetate], the inhibition in test [1] came out at 27%. `Cc1nc(N2CCC(N3C[C@H](C)OC[C@@H]3Cc3ccc(Cl)cc3)CC2)sc1C` [Compound 183, (2S,5S)-5-(4-chlorobenzyl)-4-(1-(4,5-dimethylthiazol-2-yl)piperidin-4-yl)-2-methylmorpholine 2,2,2-trifluoroacetate]: the inhibition in test [1] came to 53%.
